Experimental data taken from patent US20250340574A1, “MODULATORS OF CYSTIC FIBROSIS TRANSMEMBRANE CONDUCTANCE REGULATOR” (Vertex Pharmaceuticals Incorporated, priority 2022, published 2025).
Read-outs that look alike come from different tables or passages of the source. One block for each compound: values may come before it.

How the values were obtained:
[1] = amide bond, 13-membered ring, DMF
[2] = target: T1, CFTR (F508del/MF-HBE cells) (Homo sapiens, UniProt P13569, DEL508-508); assay: Ussing chamber assay of CFTR-mediated short-circuit currents, Assay C (0.026 μM to 25 μM, 6 concentrations); assay type: cell-based; settings: with 33 nM potentiator and 18 μM Tezacaftor, 20% human serum; for Emax: read-out: C Max activity (%)
T1 construct: human bronchial epithelial (HBE) cells derived from CF subjects heterozygous for F508del and a minimal function CFTR mutation (F508del/MF-HBE); endogenous in cells; host or cells: Primary human bronchial epithelial cells from CF subjects (F508del/MF genotype), differentiated at an air-liquid interface
T1 sequence (P13569 with tags, fused parts or gaps DEL508-508): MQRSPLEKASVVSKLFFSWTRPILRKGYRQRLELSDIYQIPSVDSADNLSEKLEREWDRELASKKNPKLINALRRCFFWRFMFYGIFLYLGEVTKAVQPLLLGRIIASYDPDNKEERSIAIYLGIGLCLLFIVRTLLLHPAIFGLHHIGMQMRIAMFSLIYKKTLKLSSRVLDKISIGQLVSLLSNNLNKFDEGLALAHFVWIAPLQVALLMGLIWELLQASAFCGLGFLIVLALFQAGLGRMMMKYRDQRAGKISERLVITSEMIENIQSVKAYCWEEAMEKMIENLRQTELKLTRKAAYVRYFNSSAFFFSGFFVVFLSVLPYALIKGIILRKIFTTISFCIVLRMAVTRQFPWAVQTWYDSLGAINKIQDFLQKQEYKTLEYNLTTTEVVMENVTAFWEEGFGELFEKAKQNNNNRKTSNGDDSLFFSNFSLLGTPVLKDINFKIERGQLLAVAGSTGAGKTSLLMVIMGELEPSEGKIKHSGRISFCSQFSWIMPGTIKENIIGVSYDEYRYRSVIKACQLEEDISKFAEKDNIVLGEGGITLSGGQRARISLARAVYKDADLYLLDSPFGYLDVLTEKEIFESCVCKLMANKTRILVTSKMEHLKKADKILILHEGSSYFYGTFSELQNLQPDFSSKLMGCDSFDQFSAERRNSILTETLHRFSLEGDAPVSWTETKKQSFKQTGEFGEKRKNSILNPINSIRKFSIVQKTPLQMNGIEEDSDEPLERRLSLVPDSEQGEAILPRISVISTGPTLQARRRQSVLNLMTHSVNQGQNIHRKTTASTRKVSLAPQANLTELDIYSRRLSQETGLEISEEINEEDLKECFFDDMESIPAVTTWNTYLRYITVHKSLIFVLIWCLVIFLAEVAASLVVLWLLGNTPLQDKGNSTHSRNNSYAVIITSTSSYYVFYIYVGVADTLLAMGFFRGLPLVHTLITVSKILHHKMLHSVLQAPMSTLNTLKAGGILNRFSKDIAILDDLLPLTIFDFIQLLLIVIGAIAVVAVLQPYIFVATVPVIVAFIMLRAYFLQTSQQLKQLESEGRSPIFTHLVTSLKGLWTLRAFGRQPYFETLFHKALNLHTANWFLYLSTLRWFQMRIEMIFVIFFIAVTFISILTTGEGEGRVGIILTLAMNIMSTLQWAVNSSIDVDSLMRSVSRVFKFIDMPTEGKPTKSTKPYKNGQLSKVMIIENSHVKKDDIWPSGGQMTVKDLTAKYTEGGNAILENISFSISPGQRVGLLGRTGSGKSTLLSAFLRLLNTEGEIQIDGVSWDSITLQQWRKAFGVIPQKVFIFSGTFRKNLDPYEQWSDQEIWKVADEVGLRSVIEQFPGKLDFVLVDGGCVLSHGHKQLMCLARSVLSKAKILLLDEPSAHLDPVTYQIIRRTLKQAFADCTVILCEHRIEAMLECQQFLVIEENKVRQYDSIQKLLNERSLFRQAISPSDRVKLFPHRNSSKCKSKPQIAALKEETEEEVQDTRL
Procedure, shortened: (§1)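 F508del/MF-HBE cells were preincubated 18–24 h at 37 °C in 20% human serum with corrector plus 18 μM tezacaftor and either 33 nM (concentration series) or 44 nM (1 μM single point) of the aminotrifluoromethyl triazatricyclic potentiator. Ussing chamber, Vhold=0 mV, 37 °C; forskolin 20 μM stimulation, CFTR ISC taken as inhibitor-cocktail-sensitive current.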

[3] = target: T1, CFTR (F508del/MF-HBE cells); assay: Ussing chamber assay of CFTR-mediated short-circuit currents, Assay D (single concentration of 1 μM); assay type: cell-based; settings: with 44 nM potentiator and 18 μM Tezacaftor, 20% human serum; for D activity at 1 μM (%): 18-24 hours
Procedure, shortened: as §1

Structure (SMILES): Cc1cccc(C)c1-c1cc2nc(n1)NS(=O)(=O)c1cccc(c1)C(=O)N(Cc1cnc3cc(C4(C)CC4)n(C)c3n1)[C@H](CC13CC(C1)C3)CO2 [Compound I-227, (11R)-11-(1-Bicyclo[1.1.1]pentanylmethyl)-6-(2,6-dimethylphenyl)-12-[[5-methyl-6-(1-methylcyclopropyl)pyrrolo[2,3-b]pyrazin-3-yl]methyl]-2,2-dioxo-9-oxa-2λ^6-thia-3,5,12,19-tetrazatricyclo[12.3.1.14,8]nonadeca-1(18),4(19),5,7,14,16-hexaen-13-one]
- ring closure, yield after HPLC ([1]; from Cc1cccc(C)c1-c1cc(OC[C@@H](CC23CC(C2)C3)NCc2cnc3cc(C4(C)CC4)n(C)c3n2)nc(NS(=O)(=O)c2cccc(C(=O)O)c2)n1, CDMT/NMM, 25.0 °C): 66%
- Emax ([2]; 18-24 hours): > 60%
- EC50 [2]: < 1 µM
- D activity at 1 μM (%) [3]: +++ (+++ is >60%)

Structure (SMILES): Cc1cccc(C)c1-c1cc2nc(n1)NS(=O)(=O)c1cccc(c1)C(=O)N(Cc1cnc3oc(C4CC4)cc3n1)[C@H](C=C1CCC1)CO2 [Compound I-154, (11R)-11-(cyclobutylidenemethyl)-12-[(6-cyclopropylfuro[2,3-b]pyrazin-2-yl)methyl]-6-(2,6-dimethylphenyl)-2,2-dioxo-9-oxa-2λ^6-thia-3,5,12,19-tetrazatricyclo[12.3.1.14,8]nonadeca-1(18),4(19),5,7,14,16-hexaen-13-one]
- ring closure, yield after HPLC ([1]; from Cc1cccc(C)c1-c1cc(OC[C@@H](C=C2CCC2)NCc2cnc3oc(C4CC4)cc3n2)nc(NS(=O)(=O)c2cccc(C(=O)O)c2)n1, CDMT/NMM, 25.1 mM, 2.08 h): 14%
- D activity at 1 μM (%) [3]: +++ (+++ is >60%)

Structure (SMILES): Cc1cccc(C)c1-c1cc2nc(n1)NS(=O)(=O)c1cccc(c1)C(=O)N(Cc1cnc3oc(C(C)C)c(Cl)c3n1)[C@H](CC1(C)CC1)CO2 [Compound I-161, (11R)-12-[(7-chloro-6-isopropyl-furo[2,3-b]pyrazin-2-yl)methyl]-6-(2,6-dimethylphenyl)-11-[(1-methylcyclopropyl)methyl]-2,2-dioxo-9-oxa-2λ^6-thia-3,5,12,19-tetrazatricyclo[12.3.1.14,8]nonadeca-1(18),4(19),5,7,14,16-hexaen-13-one]
- ring closure, yield after HPLC ([1]; from Cc1cccc(C)c1-c1cc(OC[C@@H](CC2(C)CC2)NCc2cnc3oc(C(C)C)c(Cl)c3n2)nc(NS(=O)(=O)c2cccc(C(=O)O)c2)n1, CDMT/NMM, 14.9 mM, 19.0 h): 54%
- D activity at 1 μM (%) [3]: +++ (+++ is >60%)

Structure (SMILES): Cc1cccc(C)c1-c1cc2nc(n1)NS(=O)(=O)c1cccc(c1)C(=O)N(Cc1cnc3oc(C(C)(C)C)cc3n1)[C@H](C[C@H]1CCCCO1)CO2 [Compound I-220, (11R)-12-[(6-tert-Butylfuro[2,3-b]pyrazin-2-yl)methyl]-6-(2,6-dimethylphenyl)-2,2-dioxo-11-[[(2R)-tetrahydropyran-2-yl]methyl]-9-oxa-2λ^6-thia-3,5,12,19-tetrazatricyclo[12.3.1.14,8]nonadeca-1(18),4(19),5,7,14,16-hexaen-13-one]
- ring closure, yield after HPLC ([1]; from Cc1cccc(C)c1-c1cc(OC[C@@H](C[C@H]2CCCCO2)NCc2cnc3oc(C(C)(C)C)cc3n2)nc(NS(=O)(=O)c2cccc(C(=O)O)c2)n1, CDMT/DIEA, 11.6 mM, 48.0 h): 70%
- D activity at 1 μM (%) [3]: +++ (+++ is >60%)

Structure (SMILES): Cc1cccc(C)c1-c1cc2nc(n1)NS(=O)(=O)c1cccc(c1)C(=O)N(Cc1cnc3nc(C4CC4)n(C)c3n1)[C@H](CC13CC(C1)C3)CO2 [Compound I-175, (11R)-11-(1-Bicyclo[1.1.1]pentanylmethyl)-12-[(2-cyclopropyl-3-methyl-imidazo[4,5-b]pyrazin-5-yl)methyl]-6-(2,6-dimethylphenyl)-2,2-dioxo-9-oxa-2λ^6-thia-3,5,12,19-tetrazatricyclo[12.3.1.14,8]nonadeca-1(18),4(19),5,7,14,16-hexaen-13-one]
- ring closure, yield after HPLC ([1]; from Cc1cccc(C)c1-c1cc(OC[C@@H](CC23CC(C2)C3)NCc2cnc3nc(C4CC4)n(C)c3n2)nc(NS(=O)(=O)c2cccc(C(=O)O)c2)n1, CDMT/NMM, 11.1 mM, 16.5 h): 28%
- D activity at 1 μM (%) [3]: +++ (+++ is >60%)

Structure (SMILES): COc1c2nc(nc1-c1c(C)cccc1C)NS(=O)(=O)c1cccc(c1)C(=O)N(Cc1cnc3oc(C(C)C)cc3n1)[C@H](CC(C)(C)C)CC2 [Compound I-157, (11S)-6-(2,6-Dimethylphenyl)-11-(2,2-dimethylpropyl)-12-[(6-isopropylfuro[2,3-b]pyrazin-2-yl)methyl]-7-methoxy-2,2-dioxo-2λ^6-thia-3,5,12,19-tetrazatricyclo[12.3.1.14,8]nonadeca-1(18),4(19),5,7,14,16-hexaen-13-one]
- ring closure, yield after HPLC ([1]; from COc1c(CC[C@@H](CC(C)(C)C)NCc2cnc3oc(C(C)C)cc3n2)nc(NS(=O)(=O)c2cccc(C(=O)O)c2)nc1-c1c(C)cccc1C, CDMT/NMM, 11.0 mM, 3.5 h): 62%
- D activity at 1 μM (%) [3]: +++ (+++ is >60%)

Structure (SMILES): Cc1cccc(C)c1-c1cc2nc(n1)NS(=O)(=O)c1cccc(c1)C(=O)N(Cc1cnc3oc(C(C)C)nc3n1)[C@H](CC1(C)CC1)CO2 [Compound I-149, (11R)-6-(2,6-Dimethylphenyl)-12-[(2-isopropyloxazolo[4,5-b]pyrazin-5-yl)methyl]-11-[(1-methylcyclopropyl)methyl]-2,2-dioxo-9-oxa-2λ^6-thia-3,5,12,19-tetrazatricyclo[12.3.1.14,8]nonadeca-1(18),4(19),5,7,14,16-hexaen-13-one]
- ring closure, yield after HPLC ([1]; from Cc1cccc(C)c1-c1cc(OC[C@@H](CC2(C)CC2)NCc2cnc3oc(C(C)C)nc3n2)nc(NS(=O)(=O)c2cccc(C(=O)O)c2)n1, CDMT/NMM, 23.5 mM, 2.08 h): 40%
- D activity at 1 μM (%) [3]: +++ (+++ is >60%)

Further lines, with some results ahead:

- EC50 [2]: < 1 µM
- Emax [2]: > 60%
- D act. at 1 μM (%) [3]: +++ (+++ is >60%)
Structure (SMILES): Cc1cccc(COC(C)C)c1-c1nc2nc(c1C)OC[C@@H](CC(C)(C)C)N(Cc1cnc3oc(C(C)(C)C)cc3n1)C(=O)c1cccc(c1)S(=O)(=O)N2 (single isomer, unassigned) [IV-40]
- ring closure, yield after HPLC ([1]; from Cc1cccc(COC(C)C)c1-c1nc(NS(=O)(=O)c2cccc(C(=O)O)c2)nc(OC[C@@H](CC(C)(C)C)NCc2cnc3oc(C(C)(C)C)cc3n2)c1C, CDMT/NMM, 15.1 mM, 25.0 °C, 60.0 h): 23%

- EC50 [2]: 1 to 3 µM
- Emax [2]: > 60%
- D act. at 1 μM (%) [3]: +++ (+++ is >60%)
Structure (SMILES): CCC(CC)[C@@H]1COc2cc(-c3c(C)cccc3C)nc(n2)NS(=O)(=O)c2cccc(c2)C(=O)N1Cc1cnc2oc(C(C)(C)C)cc2n1 [IV-48, (11R)-12-[(6-tert-butylfuro[2,3-b]pyrazin-2-yl)methyl]-6-(2,6-dimethylphenyl)-11-(1-ethylpropyl)-2,2-dioxo-9-oxa-2λ^6-thia-3,5,12,19-tetrazatricyclo[12.3.1.14,8]nonadeca-1(18),4,6,8(19),14,16-hexaen-13-one]
- ring closure, yield after HPLC ([1]; from CCC(CC)[C@H](COc1cc(-c2c(C)cccc2C)nc(NS(=O)(=O)c2cccc(C(=O)O)c2)n1)NCc1cnc2oc(C(C)(C)C)cc2n1, CDMT/NMM, 11.1 mM, 25.0 °C, 18.0 h): 52%

- EC50 [2]: < 1 µM
- Emax [2]: > 60%
- D act. at 1 μM (%) [3]: +++ (+++ is >60%)
Structure (SMILES): Cc1cccc(C)c1-c1cc2nc(n1)NS(=O)(=O)c1cccc(c1)C(=O)N(Cc1ncc3cc(C(C)(C)C)n(C)c3n1)[C@H](CC13CC(C1)C3)CO2 [IV-35, (11R)-11-(1-bicyclo[1.1.1]pentanylmethyl)-12-[(6-tert-butyl-7-methyl-pyrrolo[2,3-d]pyrimidin-2-yl)methyl]-6-(2,6-dimethylphenyl)-2,2-dioxo-9-oxa-2λ^6-thia-3,5,12,19-tetrazatricyclo[12.3.1.14,8]nonadeca-1(18),4(19),5,7,14,16-hexaen-13-one]
- ring closure, yield after HPLC ([1]; from Cc1cccc(C)c1-c1cc(OC[C@@H](CC23CC(C2)C3)NCc2ncc3cc(C(C)(C)C)n(C)c3n2)nc(NS(=O)(=O)c2cccc(C(=O)O)c2)n1, CDMT/NMM, 9.95 mM, 25.0 °C, 16.5 h): 27%

- D activity at 1 μM (%) [3]: +++ (+++ is >60%)
Structure (SMILES): Cc1cccc(C)c1-c1cc2nc(n1)NS(=O)(=O)c1cccc(c1)C(=O)N(Cc1cnc3c(n1)CN(C(C)C)C3=O)[C@H](CC13CC(C1)C3)CO2 [III-16, (11R)-11-(1-bicyclo[1.1.1]pentanylmethyl)-6-(2,6-dimethylphenyl)-12-[(6-isopropyl-7-oxo-5H-pyrrolo[3,4-b]pyrazin-3-yl)methyl]-2,2-dioxo-9-oxa-2λ^6-thia-3,5,12,19-tetrazatricyclo[12.3.1.14,8]nonadeca-1(18),4(19),5,7,14,16-hexaen-13-one]
- ring closure, yield after HPLC ([1]; from Cc1cccc(C)c1-c1cc(OC[C@@H](CC23CC(C2)C3)NCc2cnc3c(n2)CN(C(C)C)C3=O)nc(NS(=O)(=O)c2cccc(C(=O)O)c2)n1, CDMT/NMM, 13.0 mM, 16.5 h): 39%
